Measured values: patent US20190060257A1, “ANALGESIC COMPOUNDS” (ZENO ROYALTIES & MILESTONES, LLC, priority 2016, published 2019)

system: male ICR mice; experiment: Formalin Paw Test; assay type: in vivo, mouse; conditions: 30 mg/kg, intraperitoneal administration, early/acute phase (0-10 minutes) after 2% formalin into hind paw
Procedure: One test compound or the vehicle was administered to each mouse in each test group (8 mice per group). Non-fasted male ICR mice weighing 23±3 g were used. Test compounds were administered at a concentration of 3 mg/kg, 10 mg/kg, 15 mg/kg, 30 mg/kg, 60 mg/kg, 100 mg/kg, 200 mg/kg or 300 mg/kg; morphine was administered at a concentration of 5 mg/kg; and acetaminophen was administered at a concentration of 200 mg/kg. The control group received the vehicle (5% DMSO/40% PEG400/20% HPbCD/Saline). After 30 or 60 minutes, a 2% formalin solution (0.02 mL) was injected into one hind paw (sub-plantar) of each mouse. Responses were measured every 5 minutes after the formalin injection for 35 minutes.
The results in Table A are for intraperitoneal administration. In Table A, ‘A’ designates <70 licks/sec, ‘B’ designates ≥70 licks/sec and <165 licks/sec, and ‘C’ designates ≥165 licks/sec.

SMILES	Early Phase
NC1CC(F)(F)C1 [Compound 2]	B (‘B’ designates ≥70 licks/sec and <165 licks/sec)
NCC1CC(F)(F)C1 [Compound 6]	B (‘B’ designates ≥70 licks/sec and <165 licks/sec)
NC1CCC(F)(F)C1 (centres unmarked) [Compound 8]	B (‘B’ designates ≥70 licks/sec and <165 licks/sec)
NC1CCC(F)(F)CC1 [Compound 9]	A (‘A’ designates <70 licks/sec)
NC1CCCC(C(F)(F)F)C1 (centres unmarked) [Compound 10]	A (‘A’ designates <70 licks/sec)
NC1CCCCCC1 [Compound 11]	A (‘A’ designates <70 licks/sec)
NC1CC2(C1)CC(N)C2 (centres unmarked) [Compound 13]	B (‘B’ designates ≥70 licks/sec and <165 licks/sec)
NC1CC2(C1)CC(O)C2 (centres unmarked) [Compound 14]	B (‘B’ designates ≥70 licks/sec and <165 licks/sec)
NC12CCC(C(F)(F)F)(CC1)CC2 [Compound 18]	B (‘B’ designates ≥70 licks/sec and <165 licks/sec)
CC12CC3CC(C)(C1)CC(N)(C3)C2 [Compound 19]	A (‘A’ designates <70 licks/sec)
NC12CC3CC(C1)CC(C(F)(F)F)(C3)C2 [Compound 20]	A (‘A’ designates <70 licks/sec)
N[C@H]1C[C@@H](O)C1 [cis-1]	B (‘B’ designates ≥70 licks/sec and <165 licks/sec)
N[C@H]1C[C@H](O)C1 [trans-1]	B (‘B’ designates ≥70 licks/sec and <165 licks/sec)

same assay, conditions: 30 mg/kg, intraperitoneal administration, late/tonic phase (10-35 minutes) after 2% formalin into hind paw

SMILES	Late Phase
NC1CC(F)(F)C1 [Compound 2]	B (‘B’ designates ≥70 licks/sec and <165 licks/sec)
NCC1CC(F)(F)C1 [Compound 6]	B (‘B’ designates ≥70 licks/sec and <165 licks/sec)
NC1CCC(F)(F)C1 (centres unmarked) [Compound 8]	B (‘B’ designates ≥70 licks/sec and <165 licks/sec)
NC1CCC(F)(F)CC1 [Compound 9]	A (‘A’ designates <70 licks/sec)
NC1CCCC(C(F)(F)F)C1 (centres unmarked) [Compound 10]	A (‘A’ designates <70 licks/sec)
NC1CCCCCC1 [Compound 11]	C (‘C’ designates ≥165 licks/sec)
NC1CC2(C1)CC(N)C2 (centres unmarked) [Compound 13]	B (‘B’ designates ≥70 licks/sec and <165 licks/sec)
NC1CC2(C1)CC(O)C2 (centres unmarked) [Compound 14]	B (‘B’ designates ≥70 licks/sec and <165 licks/sec)
NC12CCC(C(F)(F)F)(CC1)CC2 [Compound 18]	B (‘B’ designates ≥70 licks/sec and <165 licks/sec)
CC12CC3CC(C)(C1)CC(N)(C3)C2 [Compound 19]	A (‘A’ designates <70 licks/sec)
NC12CC3CC(C1)CC(C(F)(F)F)(C3)C2 [Compound 20]	A (‘A’ designates <70 licks/sec)
N[C@H]1C[C@@H](O)C1 [cis-1]	C (‘C’ designates ≥165 licks/sec)
N[C@H]1C[C@H](O)C1 [trans-1]	C (‘C’ designates ≥165 licks/sec)
